This is an account of results in article PMC4403932 (Journal of Medicinal Chemistry, 2015).

Where two headings read alike, the source gives them in different places.

Type in all cases: binding
One assay concerns the target T1, BRD4(1) (Homo sapiens, UniProt O60885).
T1 construct: made in house
As to the kind of experiment: Protein stability (thermal) shift assay, BRD4(1). The settings on record: compound 10 μM, protein 2 μM; average of triplicate; read-out: ΔTm Shift, BRD4(1).

The target of the next assay is T2, BRDT(1) (Homo sapiens, UniProt Q58F21).
T2 construct: made in house
As to the kind of experiment: Protein stability (thermal) shift assay, BRDT(1). The settings on record: compound 10 μM, protein 2 μM; average of triplicate.

Assay [1] addresses T3, BRD9 (Homo sapiens, UniProt Q9H8M2).
T3 construct: made in house
T3 sequence (Q9H8M2 136-240 limits assumed): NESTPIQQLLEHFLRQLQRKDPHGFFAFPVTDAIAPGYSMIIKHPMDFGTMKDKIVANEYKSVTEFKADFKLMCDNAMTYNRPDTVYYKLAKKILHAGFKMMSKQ
As to the kind of experiment: Protein stability (thermal) shift assay, BRD9. The conditions noted are these: compound 10 μM, protein 2 μM; average of triplicate; read-out: ΔTm Shift, BRD9.

The target of another assay is T4, BRD2(2) (Homo sapiens, UniProt P25440).
T4 construct: made in house
The assay can be described thus: Protein stability (thermal) shift assay, BRD2(2). The conditions noted are these: compound 10 μM, protein 2 μM; average of triplicate.

For a further assay, the target named is T5, BRD3(1) (Homo sapiens, UniProt Q15059).
T5 construct: Fragments were tested in a thermal shift assay against bromodomains of the BET subfamily; made in house
As to the kind of experiment: Protein stability (thermal) shift assay, BRD3(1). The settings on record: compound 10 μM, protein 2 μM; average of triplicate.

The next assay concerns the target T6, PCAF (Homo sapiens, UniProt Q92831).
T6 construct: representative BRDs from other structural subfamilies (family I, PCAF); made in house
T6 sequence (Q92831 723-827 limits assumed): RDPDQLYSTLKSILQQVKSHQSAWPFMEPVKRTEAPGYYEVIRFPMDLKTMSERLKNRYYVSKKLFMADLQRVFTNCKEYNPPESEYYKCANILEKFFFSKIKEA
The assay can be described thus: Protein stability (thermal) shift assay, PCAF. The conditions noted are these: compound 10 μM, protein 2 μM; average of triplicate.

Another assay has as its target T7, BAZ2B (Homo sapiens, UniProt Q9UIF8).
T7 construct: representative BRDs from other structural subfamilies (family I, PCAF); family III, CREBBP; family IV, BRD9; family V, BAZ2B; made in house
T7 sequence (Q9UIF8 2060-2164 limits assumed): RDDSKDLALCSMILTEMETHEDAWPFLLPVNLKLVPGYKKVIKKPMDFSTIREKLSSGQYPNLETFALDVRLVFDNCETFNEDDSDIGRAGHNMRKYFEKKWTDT
As to the kind of experiment: Protein stability (thermal) shift assay, BAZ2B. The settings on record: compound 10 μM, protein 2 μM; average of triplicate; read-out: ΔTm Shift, BAZ2BA.

The target of a further assay is T8, BRDT(2) (Homo sapiens, UniProt Q58F21).
T8 construct: made in house
As to the kind of experiment: Protein stability (thermal) shift assay, BRDT(2). The settings on record: compound 10 μM, protein 2 μM; average of triplicate; read-out: ΔTm Shift, BRDT(2).

Another assay has as its target T9, BRD2(1) (Homo sapiens, UniProt P25440).
T9 construct: Fragments were tested in a thermal shift assay against bromodomains of the BET subfamily; made in house
As to the kind of experiment: Protein stability (thermal) shift assay, BRD2(1). The conditions noted are these: compound 10 μM, protein 2 μM; average of triplicate.

The target in another assay is T10, BRD3(2) (Homo sapiens, UniProt Q15059).
T10 construct: made in house
As to the kind of experiment: Protein stability (thermal) shift assay, BRD3(2). The conditions noted are these: compound 10 μM, protein 2 μM; average of triplicate.

A further assay has as its target T11, PB1(5) (Homo sapiens, UniProt Q86U86).
T11 construct: made in house
The assay can be described thus: Protein stability (thermal) shift assay, PB1(5). The settings on record: compound 10 μM, protein 2 μM; average of triplicate.

The next assay addresses T12, CREBBP (Homo sapiens, UniProt Q92793).
T12 construct: small thermal shits (1.0–1.3 °C) for the bromodomain of CREBBP; made in house
As to the kind of experiment: Protein stability (thermal) shift assay, CREBBP.

The subject of assay [2] is human bromodomains (panel). The assay can be described thus: Protein stability (thermal) shift assay, whole panel of human bromodomains. The conditions noted are these: 10 μM compound. As to the method: Thermal melting experiments were carried out using an Mx3005p real time PCR machine (Stratagene). Proteins were buffered in 10 mM HEPES, pH 7.5, 500 mM NaCl and assayed in a 96-well plate at a final concentration of 2 μM in 20 μL volume. Compounds were added at a final concentration of 10 or 100 μM. SYPRO Orange (Molecular Probes) was added as a fluorescence probe at a dilution of 1 in 1000. Excitation and emission filters for the SYPRO-Orange dye were set to 465 and 590 nm, respectively. The temperature was raised with a step of 3 °C per minute from 25 to 96 °C, and fluorescence readings were taken at each interval. The temperature dependence of the fluorescence during the protein denaturation process was approximated by the equation [drawing 1] where ΔuG is the difference in unfolding free energy between the folded and unfolded state, R is the gas constant, and yF and yU are the fluorescence intensity of the probe in the presence of completely folded and unfolded protein, respectively.[65] The baselines of the denatured and native states were approximated by a linear fit. The observed temperature shifts, ΔTm^obs, were recorded as the difference between the transition midpoints of sample and reference wells containing protein without ligand in the same plate and determined by nonlinear least-squares fit. Temperature shifts (ΔTm^obs) for three independent measurements per proteins/compound are summarized in Supporting Information Table S1.

The next assay has as its target T13, BRD4(2) (Homo sapiens, UniProt O60885).
T13 construct: made in house
The assay can be described thus: Protein stability (thermal) shift assay, BRD4(2). The conditions noted are these: compound 10 μM, protein 2 μM; average of triplicate.

The target of assay [3] is T3, BRD9. As to the kind of experiment: Isothermal titration calorimetry, BRD9. The conditions noted are these: ITC, 50 mM HEPES pH 7.5, 150 mM NaCl, 15 °C, reverse titration, triplicate. As for the experimental part:
Experiments were carried out on an ITC200 titration microcalorimeter from MicroCal, LLC (GE Healthcare) equipped with a Washing module, with a cell volume of 0.2003 mL, and a 40 μL microsyringe. Experiments were carried out at 15 °C while stirring at 1000 rpm, in ITC buffer (50 mM HEPES, pH 7.5 (at 25 °C), 150 mM NaCl). The microsyringe was loaded with a solution of the protein sample (300−740 μM protein for BRD9 and BRD4(1), respectively, in ITC buffer) and was carefully inserted into the calorimetric cell which was filled with an amount of the ligand (0.2 mL, 20–25 μM in ITC buffer). The system was first allowed to equilibrate until the cell temperature reached 15 °C, and an additional delay of 60 s was applied. All titrations were conducted using an initial control injection of 0.3 μL followed by 38 identical injections of 1 μL with a duration of 2 s (per injection) and a spacing of 120 s between injections. The titration experiments were designed in such a fashion as to ensure complete saturation of the proteins before the final injection. The heat of dilution for the proteins was independent of their concentration and corresponded to the heat observed from the last injection, following saturation of ligand binding, thus facilitating the estimation of the baseline of each titration from the last injection. The collected data were corrected for protein heats of dilution (measured on separate experiments by titrating the proteins into ITC buffer) and deconvoluted using the MicroCal Origin software supplied with the instrument to yield enthalpies of binding (ΔH) and binding constants (KB) in the same fashion as that previously described in detail by Wiseman and co-workers.[66] Thermodynamic parameters were calculated using the basic equation of thermodynamics (ΔG = ΔH – TΔS = −RT ln KB, where ΔG, ΔH, and ΔS are the changes in free energy, enthalpy, and entropy of binding, respectively). In all cases a single binding site model was employed, supplied with the MicroCal Origin software package.
For orientation: ITC needs no label: the signal is the heat of the interaction.

Where [4] appears, read: compound 10 μM, protein 2 μM, average of triplicate, read-out: ΔTm Shift, CREBBP.

T4 sequence (P25440 344-453 limits assumed): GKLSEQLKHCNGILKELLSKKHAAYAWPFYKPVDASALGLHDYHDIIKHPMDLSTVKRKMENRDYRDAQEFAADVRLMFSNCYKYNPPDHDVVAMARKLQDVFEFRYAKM
T10 sequence (Q15059 306-415 limits assumed): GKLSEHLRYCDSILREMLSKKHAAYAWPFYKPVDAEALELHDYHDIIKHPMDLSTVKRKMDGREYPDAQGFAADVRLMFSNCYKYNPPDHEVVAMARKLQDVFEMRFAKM
T9 sequence (P25440 74-180 limits assumed): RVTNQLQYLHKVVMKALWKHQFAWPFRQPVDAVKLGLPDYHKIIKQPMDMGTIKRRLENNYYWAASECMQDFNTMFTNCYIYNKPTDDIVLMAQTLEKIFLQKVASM
T5 sequence (Q15059 34-140 limits assumed): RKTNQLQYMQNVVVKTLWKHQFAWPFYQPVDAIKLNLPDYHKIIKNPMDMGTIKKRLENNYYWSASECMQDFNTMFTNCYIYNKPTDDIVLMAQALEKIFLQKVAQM
T11 sequence (Q86U86 653-763 limits assumed): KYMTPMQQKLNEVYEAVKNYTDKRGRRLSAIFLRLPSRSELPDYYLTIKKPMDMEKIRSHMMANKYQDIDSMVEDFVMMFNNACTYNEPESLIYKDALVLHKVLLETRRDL
T12 sequence (Q92793 1085-1192 limits assumed): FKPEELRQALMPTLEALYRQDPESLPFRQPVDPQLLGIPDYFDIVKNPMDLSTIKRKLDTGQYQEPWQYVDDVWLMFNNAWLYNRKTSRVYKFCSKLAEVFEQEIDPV

Consider `COc1ccc(-c2nc(N)nc3c2ncn3C)cc1` [Compound 3c, 2-Amino-6-(4-methoxyphenyl)-9-methylpurine], for which the ΔTm at 10 µM at BRD4(1) is -0.7 °C; at BRDT(1), -0.7 °C; on BRD9 [1], -0.32 °C; at BRD2(2) it was -0.5 °C; on BRD3(1), -1 °C; at PCAF it was -1.1 °C. Further, the ΔTm at 10 µM was -1.3 °C on BAZ2B; -2.5 °C at BRDT(2); -1 °C on BRD2(1); -0.7 °C on BRD3(2); -0.0233 °C at PB1(5); 1.1 °C at CREBBP (setting [4]). Further, the ΔTm at 10 µM at BRD4(2) was -3.8 °C. For the same compound, the “binding to the bromodomain panel in the ΔTm assay (in words)” value (shortened to “binding … in the ΔTm assay (in words)”) in assay [2] is listed as “very weak or no binding”.

Take `Cn1cnc2c(-c3ccc(Oc4ccccc4)cc3)nc(N)nc21` [Compound 3e, 2-Amino-6-(4-phenoxyphenyl)-9-methylpurine]: the ΔTm at 10 µM on BRD4(1) worked out at 1 °C; at BRDT(1) it was 0.6 °C; at BRD9 [1] it was 0.257 °C; on BRD2(2), 0.463 °C; on BRD3(1) it was 0.743 °C; on PCAF, 1 °C. Further, the ΔTm at 10 µM on BAZ2B is 0.6 °C; at BRDT(2), 1.2 °C; on BRD2(1), 0.32 °C; at BRD3(2) it was 0.8 °C; at PB1(5) it was 0.8 °C; on CREBBP (setting [4]) it was 1.3 °C. Moreover, at BRD4(2), the ΔTm at 10 µM came out at 0.8 °C. For the same compound, the “binding … in the ΔTm assay (in words)” value in assay [2] is “very weak or no binding”.

Take `Nc1nc(-c2ccc(OCc3ccccc3)cc2)c2nc[nH]c2n1` [Compound 3f, 2-Amino-6-(4-(benzyloxy)phenyl)-9H-purine]: the ΔTm at 10 µM on BRD4(1) was 3.5 °C; at BRDT(1), 1.8 °C; at BRD9 [1], -0.116 °C; on BRD2(2), 3.8 °C; at BRD3(1), 2.2 °C; at PCAF it was 2.8 °C. Also, the ΔTm at 10 µM is 3.2 °C at BRDT(2); 2 °C on BRD2(1); 4.2 °C at BRD3(2); 1.5 °C at PB1(5); 2.6 °C at CREBBP (setting [4]); -51.9 °C on BRD4(2). The “binding … in the ΔTm assay (in words)” value in [2] is reported as “showed binding toward all BRDs”.

For the compound `Cn1cnc2c(-c3cccc(OCc4ccc(Cl)cc4)c3)nc(N)nc21` [Compound 4e, 2-Amino-6-(3-(4′-chlorobenzyloxy)phenyl)-9-methylpurine], the ΔTm at 10 µM was 0.177 °C at BRD4(1); 0.273 °C at BRDT(1); 0.6 °C on BRD2(2); -0.0167 °C at BRD3(1); 0.143 °C at PCAF; 0.6 °C on BAZ2B. In addition, the ΔTm at 10 µM on BRDT(2) is -0.163 °C; on BRD2(1), -0.15 °C; at BRD3(2), 0.223 °C; at PB1(5), 0.5 °C; on CREBBP (setting [4]), 0.9 °C; on CREBBP (thermal shift, 10 μM compound, 2 μM protein, read-out: ΔTm), 1 to 1.3 °C. The ΔTm at 10 µM at BRD4(2) amounted to 0.2 °C. The “binding … in the ΔTm assay (in words)” value in assay [2] is listed as “very weak or no binding”.

For the compound `COc1ccc(Br)cc1-c1nc(N)nc2c1ncn2C` [Compound 8b, 2-Amino-6-(5-bromo-2-methoxyphenyl)-9-methylpurine], the ΔTm at 10 µM was found to be 0.323 °C at BRD4(1); 0.4 °C on BRDT(1); 0.6 °C on BRD2(2); 0.147 °C at BRD3(1); 0.9 °C on PCAF; 0.6 °C at BAZ2B. The ΔTm at 10 µM is 0.0167 °C at BRDT(2); 0.163 °C at BRD2(1); 0.467 °C at BRD3(2); 0.7 °C on PB1(5); 0.74 °C at CREBBP (setting [4]); 0.337 °C on BRD4(2). Also, on BRD9 [3], the KD result is “no binding/weak”. Further, in [2], the “binding … in the ΔTm assay (in words)” value is listed as “completely abolished bromodomain binding”.

`Cn1cnc2c(NCc3ccccc3)nc(NCCO)nc21` [olomoucine, reference compound]: in [2], the “binding … in the ΔTm assay (in words)” value was “did not show any significant stabilization”.
